Data set [1] is described as follows: Clinical trial: plasma concentration and AUC of cinnamic acid derivatives after ingestion of BGP alone or BGP plus herbal extract mixture. The format is in vivo. Conditions: humans, BGP and herbal extracts co-administered; for AUC: plasma 0–24 h, after enzymatic deconjugation, mean ± SD, n = 6; for fold increase of AUC versus BGP administered alone: 0–24 h. The protocol:
Six volunteers (three males and three females) completely understood the study protocol and consented to participate in the research. The following exclusion criteria were used for shortlisting participants: past or present medical history (asthma, significant allergies, heart, liver, kidney, and urinary tract disease); prescribed medication; pregnancy; smoking (>20 cigarettes/day); alcohol consumption (>500 mL/day of beer); use of dietary supplements and healthy foods; and participation in other clinical trials. The participants were instructed to refrain from consuming propolis and propolis‐containing foods and beverages during the study period and 1 week prior to the start of the study. After a 12‐h fast, the participants were given a test food comprising the encapsulated BGP powder or a mixture of the BGP powder and herbal extracts in two experimental periods separated by 1 week. […] The collected samples were centrifuged at 1500 g for 3 min at 23 ± 2°C to separate the plasma, which was subsequently preserved at −80°C until further sample preparation.
(§1) Briefly, 50 μL of plasma was treated with a sulfatase/β‐glucuronidase solution (sulfatase 15 units/sample) in 100 mM sodium acetate and 5 mM ascorbate at 37°C for 1 h. Following the incubation, 850 μL of methanol was added to the samples to stop the deconjugation reaction, after which centrifugation was performed at 2000 g for 10 min at 23 ± 2°C. The supernatant was evaporated under nitrogen gas and then reconstituted in a fixed volume of methanol. The samples were filtered through a 0.22 μm PTFE membrane and then analyzed by LC–MS/MS.
(§2) Briefly, 5 μL of the sample was injected into a reversed‐phase column (Acquity UPLC BEH C18, 2.1 × 100 mm, ID. 1.7 μm; Waters, Milford, MA, USA) held at 30°C. The elution was performed using solvent A (0.1% formic acid) and solvent B (acetonitrile) at a flow rate of 0.3 mL/min. The gradient profiles were as follows: 5% B (0–2 min), 5–95% B (2–22 min), 95% B (22–25 min), and 5% B (25–30 min). Tandem mass spectrometry (MS/MS) was conducted using an ion trap mass spectrometer with a heated electrospray ion source (HESI) in both positive and negative ionization modes (scan range m/z 70–1000). […] External standard curves for cinnamic acid derivatives were generated using eight concentrations of authentic standard solutions (1, 5, 10, 50, 100, 250, 500, and 1000 ng/mL).
(§3) Quantification of cinnamic acid derivatives in the plasma was performed using the Trace Finder software version 4.1 (Thermo Scientific). The plasma concentration versus time data for the analytes obtained from each human and rat were entered into a Microsoft Excel spreadsheet. The area under the plasma concentration–time curve (AUC) was calculated using the linear trapezoidal rule, extending to the last sampling point.

A short description of data set [2]: Animal study: plasma concentration and AUC of cinnamic acid derivatives after intragastric BGP with or without each herbal extract. The format is in vivo, Wistar/ST rats. Conditions: rats; for AUC: intragastric, 0–24 h, mean ± SD, n = 8; for plasma concentration, BGP alone versus BGP and turmeric (in words): 24 h post-ingestion. Here is the method: Wistar/ST rats (male, 7 weeks old) were purchased from Japan SLC (Shizuoka, Japan). […] The rats were quarantined and acclimatized under the above conditions for 1 week and divided into six groups (eight rats/group) according to their average body weight (240–260 g). Each test sample listed in Table 1 was dissolved in 10% propylene glycol (1 mL per rat) and administered intragastrically to the rats after an overnight fasting period with free access to water. […] The collected samples were centrifuged at 1500 g for 10 min at 4°C to separate the plasma and preserved at −80°C until further sample preparation.
as §1, §2, §3

Setting [3] is: BGP co-administered with gotu kola extract.
Where [4] appears, read: BGP co-administered with turmeric extract.

By AUC is commonly meant the area under the concentration-time curve, a measure of exposure.

“Also recorded” adds a separate entry of the source.

On to `CC(C)=CCc1cc(/C=C/C(=O)O)ccc1O` [drupanin], for which the AUC in data set [1] (both sexes, human, oral, read-out: AUC) amounted to 446 ± 144 ng·h/mL; in data set [2] (male, Wistar/ST, rat, plasma, po, BGP 75 mg/kg co-administered with gotu kola extract 250 mg/kg, read-out: AUC) it was 629 ± 167 ng·h/mL; in data set [2] (male, Wistar/ST, rat, plasma, po, BGP 75 mg/kg co-administered with turmeric extract 250 mg/kg, read-out: AUC) it was 627 ± 148 ng·h/mL. Further, the “fold increase of AUC versus BGP administered alone” value in data set [1] turned out to be 1.5 fold; in data set [2] (setting [3]) it was 1.3 fold; in data set [2] (setting [4]), 1.3 fold. Also, the “plasma concentration, BGP alone versus BGP and turmeric (in words)” value in data set [2] is recorded as “did not differ”. Moreover, the “change of plasma concentration versus BGP alone (in words)” value in data set [2] (BGP + turmeric extract, at 30 min and 3 h) is on record as “significant increases or increasing trends”. For the same molecule, the “change of AUC versus BGP alone (in words)” value in data set [2] (setting [3]) was “tended to increase”.
On to `CC(C)=CCc1cc(/C=C/C(=O)O)cc(CC=C(C)C)c1O` [artepillin C], for which the “fold increase of AUC versus BGP administered alone” value in data set [1] was 1.7 fold; in data set [2] (setting [4]), 1.4 fold. For the same molecule, the AUC is 312.9 ± 91.4 ng·h/mL in data set [1], 1018.0 ± 184.5 ng·h/mL in data set [2] (BGP 75 mg/kg administered alone) and 1377.2 ± 320.2 ng·h/mL in data set [2] (BGP 75 mg/kg co-administered with turmeric extract 250 mg/kg). Besides, the “plasma concentration, BGP alone versus BGP and turmeric (in words)” value in data set [2] is listed as “did not differ”. Moreover, the “peaks of the plasma concentration–time curve” value in data set [2] (BGP + turmeric extract) was “two distinct peaks at 30 min and 6 h”. For the same molecule, the “fold increase of plasma concentration versus BGP alone” value in data set [2] (BGP + turmeric extract, 30 min after administration) is given as 1.7 fold; in data set [2] (BGP + turmeric extract, 6 h after administration) it was 1.5 fold. Further, the “change of AUC versus BGP alone (in words)” value in data set [2] (BGP co-administered with coffee fruit extract) was “did not significantly alter”; in data set [2] (BGP co-administered with ginkgo leaf extract), “did not significantly alter”; in data set [2] (setting [3]), “did not significantly alter; also recorded: not changed”; in data set [2] (BGP co-administered with soybean extract), “did not significantly alter”.
